Data from US20110124021A1, “PHOS[…] ACID SYNTHASE AND CANCER” (priority 2007, published 2011).

Tests used:
Format in all cases: cell-based, human
total cellular FAS = test: Effect of okadaic acid treatment on total cellular FAS (FIG. 7B); details: cell line not stated
Source text: FIGS. 7A and 7B, illustrates that phosphorylated FAS increases with okadaic acid treatment (part A) while total FAS protein is reduced (part B).
The effect of okadaic acid, a protein phosphatase 2A inhibitor, in FAS phosphorylation was studied.

[1] = test system: FAS phosphorylation in PPC-1 cell line; test: Effect of okadaic acid on FAS phosphorylation in PPC-1 cells (FIG. 7A); details: brief treatment with 100 nM okadaic acid; PPC-1 prostate cancer cell line
Source text: (§1) The relationship between FAS phosphorylation and cancer was investigated with a panel of the following human immortalized non-transformed cell lines: IMR-90 fetal lung, hPS human prostate and human cancer cell lines: HCT-116 colon, PPC-1 prostate, and SKBr3 breast. FAS enzyme levels (adjusted to total cellular protein) were quantitated by immunoblot and normalized to IMR-90. Both IMR-90 and hPS non-transformed cell lines had relatively low levels of FAS expression compared to the cancer cell lines, which ranged from 4.3 to 22 fold elevations compared to IMR-90 cells. The high level of FAS expression in SKBr3 cells is consistent with the observation that 28% of its cytosolic protein is FAS (Thompson et al., Biochem. Biophys Acta, 662: 125-130 (1981)).
(§2) Because the FAS expression levels in this panel of cells is consistent with observations made in vivo, the possibility of differential FAS phosphorylation in these cells was investigated. […] No immunoreactivity was detected with an anti-phosphotyrosine or an anti-phosphoserine antibody, although additional antibodies and FAS proteins were not tested. Additional human cancer cell lines, such as LnCAP, OVCAR-3, SKOV3 (ovary), RKO (colon), H460, LX7 (lung), CAPAN-1, and PANC-1 (pancreas) can also be assessed for differential FAS phosphorylation as described above. […]

[2] = test system: FAS phosphorylation in HCT-116 cell line; test: Effect of okadaic acid on FAS phosphorylation in HCT-116 cells (FIG. 7A); details: brief treatment with 100 nM okadaic acid; HCT-116 colon cancer cell line
Source text: as §1, §2

Structure (SMILES): C=C1[C@@H](O)[C@@H]2O[C@]3(CC[C@H](/C=C/[C@@H](C)[C@@H]4CC(C)=C[C@@]5(O[C@H](C[C@@](C)(O)C(=O)O)CC[C@H]5O)O4)O3)CC[C@H]2O[C@@H]1[C@@H](O)C[C@H](C)[C@H]1O[C@@]2(CCCCO2)CC[C@H]1C [okadaic acid]
- total FAS protein (total cellular FAS): reduced
- ratio of phosphorylated FAS to total FAS [1]: increases substantially
- ratio of phosphorylated FAS to total FAS [2]: increases substantially
